Experimental data taken from US20040229268A1, “Method and kit for identifying antibiotic-resistant microorganisms” (priority 2003, published 2004).

What was measured:
[1] = tested on: mecA gene; Staphylococcus spp. and S. aureus ribosomal nucleic acids; assay: HPA probe panel on clinical and ATCC isolates (Examples 8-9); format: binding
Protocol: Oxacillin MIC results were provided by an outside laboratory. The GP Probe results were determined as described in Example 8.

[2] = tested on: mecA gene; Staphylococcus ribosomal nucleic acids; assay: HPA after thermal lysis, base hydrolysis and neutralization (Examples 5-7); format: binding, S. aureus
Protocol: The cultured S. aureus specimens were lysed by suspending 1 μl loops of bacteria in 150 μl of lysis buffer and then incubating at 105° C. for 15 minutes. Next, 100 μl of 2 N LiOH base solution was added and RNA was hydrolyzed by incubating the mixtures at 60° C. for 15 minutes. Hydrolyzed samples were neutralized by the addition of 100 μl of a neutralizing reagent that included 2 N HCl and 100 mM succinate buffer (pH 5.5 prior to acidification with HCl). Specifically hybridized probe was detected by standard HPA, essentially as described in Example 1.
Specimens (1 μl loops of bacteria) were treated and tested essentially as described in Example 5 with the following differences: incubation for lysis was for 15 minutes and incubation for hybridization was for 45 minutes for samples shown in Tables 7-8, while incubation for lysis was for 10 minutes and incubation for hybridization was for 20 minutes for samples shown in Table 9. All of the base-treated solutions were neutralized by the addition of 250 μl of 0.8 N HCl containing 100 mM succinate.
2′-methoxy analogs of the AE-labeled DNA probes were prepared by standard phosphoramidite synthesis using 2′ methoxy phosphoramidite analogs. Additional linker positions, which are indicated by parentheses in Table 11, for probe 2 were also prepared for testing. Deoxy probes and 2′-methoxy probe analogs were tested essentially as described in Example 5, except as noted below. Probes synthesized using 2′-methoxy nucleotide analogs are particularly identified by the “MeO” designations. Brief summaries of the procedures used to obtain the results are appended to the tables.

[3] = Table 8, lysis 15 minutes, hybridization 45 minutes
[4] = Table 9, lysis 10 minutes, hybridization 20 minutes
[5] = Table 11, neutralize 250 μl 0.8 N HCl containing 100 mM succinate, hybridize 45 minutes at 60° C.
[6] = Table 7, lysis 15 minutes, hybridization 45 minutes
[7] = Table 10, neutralize 100 μl 2 N HCl containing 200 mM succinate, hybridize 45 minutes at 60° C.

CCGAACTGAGAACAACTTTATGGGATTTGC (chemistry not given here) [Staphylococcus spp. probe with helpers]
HPA Results (# positive for indicated probes) ([1]; ATCC MRSA, 1 isolate, Oxacillin MIC 16 μg/ml): 1
HPA Results (# positive for indicated probes) ([1]; ATCC MSSA, 1 isolate, Oxacillin MIC 1 μg/ml): 1
HPA Results (# positive for indicated probes) ([1]; ATCC MSSA, 4 isolates, Oxacillin MIC 0.5 μg/ml): 4
HPA Results (# positive for indicated probes) ([1]; ATCC MSSA, 6 isolates, Oxacillin MIC ≦0.25 μg/ml): 6
HPA Results (# positive for indicated probes) ([1]; Clinical MRSA, 8 isolates, Oxacillin MIC 16 μg/ml): 8
HPA Results (# positive for indicated probes) ([1]; Clinical MRSA, 107 isolates, Oxacillin MIC >16 μg/ml): 107
HPA Results (# positive for indicated probes) ([1]; Clinical MSSA, 28 isolates, Oxacillin MIC 0.5 μg/ml): 28
HPA Results (# positive for indicated probes) ([1]; Clinical MSSA, 99 isolates, Oxacillin MIC ≦0.25 μg/ml): 99
HPA Results (RLU) ([1]; GP21 (S. aureus, mecA(−), MSSA)): 373232 RLU
HPA Results (RLU) ([1]; GP22 (CoNS, mecA(+))): 225141 RLU
HPA Results (RLU) ([1]; GP23 (S. aureus, mecA(−))): 301657 RLU
HPA Results (RLU) ([1]; GP24 (S. aureus, mecA(+))): 306718 RLU
HPA Results (RLU) ([1]; GP25 (S. aureus, mecA(+))): 456426 RLU
HPA Results (RLU) ([1]; GP26 (S. aureus, mecA(−))): 262267 RLU
HPA Results (RLU) ([1]; GP27 (CoNS, mecA(−))): 182304 RLU
HPA Results (RLU) ([1]; GP28 (S. aureus, mecA(−))): 246636 RLU
HPA Results (RLU) ([1]; GP29 (S. aureus, mecA(+))): 388748 RLU
HPA Results (RLU) ([1]; GP30 (S. aureus, mecA(−))): 440128 RLU
HPA Results (RLU) ([1]; GP31 (S. aureus, mecA(+))): 349207 RLU
HPA Results (RLU) ([1]; GP32 (S. aureus, mecA(−))): 432041 RLU
HPA Results (RLU) ([1]; GP33 (S. aureus, mecA(+))): 160830 RLU
HPA Results (RLU) ([1]; GP34 (S. aureus, mecA(−))): 634079 RLU
HPA Results (RLU) ([1]; GP35 (S. aureus, mecA(+))): 543089 RLU
HPA Results (RLU) ([1]; GP36 (S. aureus, mecA(−))): 370898 RLU
HPA Results (RLU) ([1]; GP37 (S. aureus, mecA(+))): 397722 RLU
HPA Results (RLU) ([1]; GP38 (S. aureus, mecA(+))): 387613 RLU
HPA Results (RLU) ([1]; GP39 (S. aureus, mecA(−))): 280358 RLU
HPA Results (RLU) ([1]; GP40 (S. aureus, mecA(−))): 292407 RLU
HPA Results (RLU) ([1]; Neg Control (Hybridization Buffer)): 1775 RLU
HPA Results (RLU) ([1]; Pos Control GP1217 (S. aureus, mecA(+), MRSA)): 170530 RLU
HPA Results (# positive for indicated probes) ([1]; S. epidermidis, 1 isolate, Oxacillin MIC >16 μg/ml): 1
HPA Results (# positive for indicated probes) ([1]; S. epidermidis, 2 isolates, Oxacillin MIC ≦0.25 μg/ml): 2
HPA Results (# positive for indicated probes) ([1]; S. hemoliticus, 1 isolate, Oxacillin MIC ≦0.25 μg/ml): 1
HPA Results (# positive for indicated probes) ([1]; S. hominis, 1 isolate, Oxacillin MIC ≦0.25 μg/ml): 1
HPA Results (# positive for indicated probes) ([1]; S. hyicus-hyicus, 1 isolate, Oxacillin MIC ≦0.25 μg/ml): 1
HPA Results (# positive for indicated probes) ([1]; S. intermedius, 1 isolate, Oxacillin MIC ≦0.25 μg/ml): 1
HPA Results (# positive for indicated probes) ([1]; S. saprophyticus, 1 isolate, Oxacillin MIC 0.5 μg/ml): 1
HPA Results (# positive for indicated probes) ([1]; S. simulans, 1 isolate, Oxacillin MIC ≦0.25 μg/ml): 1
HPA Results (# positive for indicated probes) ([1]; S. warneri, 1 isolate, Oxacillin MIC ≦0.25 μg/ml): 1
RLU ([2]; Table 6, GP18(Neg), MSSA ATCC #12600): 170,434 RLU
RLU ([2]; Table 6, GP1214(Neg), MSSA ATCC #29247): 234,286 RLU
RLU ([2]; Table 6, GP1217(Pos), MRSA ATCC #33591): 225,772 RLU
RLU ([2]; Table 6, GP1218(Pos), MRSA ATCC #43866): 203,488 RLU

GCGATAATGGTGAAGTAGAAATGACTGAACGTCCG (DNA, backbone and methylation of C not given here; acridinium ester label on internal non-nucleotide linker; listed as Staphylococcus aureus) [probe 3]
GP18(Neg) RLU [2, 3]: 371 RLU
GP1217(Pos) RLU [2, 3]: 36123 RLU
Probe alone Avg RLU [2, 3]: 445 RLU
GP1217(Pos) RLU [2, 4]: 46566 RLU
Probe alone Avg RLU [2, 4]: 684 RLU
GP1214(Neg) RLU [2, 5]: 1303 RLU
GP1217(Pos) RLU [2, 5]: 36993 RLU
Probe alone Avg RLU [2, 5]: 1098 RLU

GCTCCAACATGAAGATGGCTATCGTGTCACAATCG (DNA, backbone and methylation of C not given here; acridinium ester label on internal non-nucleotide linker; listed as Staphylococcus aureus) [probe 5]
GP18(Neg) RLU [2, 6]: 1250 RLU
GP1217(Pos) RLU [2, 6]: 37472 RLU
Probe alone Avg RLU [2, 6]: 4088 RLU
GP1217(Pos) RLU [2, 4]: 42816 RLU
Probe alone Avg RLU [2, 4]: 2823 RLU

MeO-probe 1: 2′-methoxy analog of AE-labeled probe 1 (SEQ ID NO:1) (DNA GGTATGTGGAAGTTAGATTGGGATCATAGCG; all 2'-O-methyl, backbone and T or U not given here; acridinium ester label on internal non-nucleotide linker; listed as Staphylococcus aureus)
GP1214(Neg) RLU [2, 7]: 2308 RLU
GP1217(Pos) RLU [2, 7]: 62594 RLU
Probe alone Avg RLU [2, 7]: 1879 RLU
GP1214(Neg) RLU [2, 5]: 975 RLU
GP1217(Pos) RLU [2, 5]: 33659 RLU
Probe alone Avg RLU [2, 5]: 779 RLU

MeO-probe 2: 2′-methoxy analog of AE-labeled probe 2 (SEQ ID NO:2); linker position not printed in Table 10 (DNA CGCTATGATCCCAATCTAACTTCCACATACC; all 2'-O-methyl, backbone and T or U not given here; acridinium ester label on internal non-nucleotide linker; listed as Staphylococcus aureus)
GP1214(Neg) RLU [2, 7]: 5242 RLU
GP1217(Pos) RLU [2, 7]: 69687 RLU
Probe alone Avg RLU [2, 7]: 2378 RLU
